Measurements published in patent publication US6207399A, “Methods of determining endogenous thrombin potential (ETP) and thrombin substrates for use in said methods” (Hemker; Hendrik Coenraad, priority 1995, dated 2001).
Peptide text beside a SMILES is read from it. * marks the point of attachment. pNA = O=[N+]([O-])c1ccc(N*)cc1

Biological target: T1, euglobulin thrombin (Homo sapiens, UniProt P00734)
T1 construct: The euglobulin thrombin fraction was prepared from defibrinated human plasma; from tissue; host or cells: defibrinated human plasma (euglobulin fraction, acid precipitation, method of Josso and Prou-Wartelle)
Test: Decay constants of thrombin in plasma
Type: biochemical

## CC(C)[C@H](N)C(=O)N[C@@H](CCCNC(=N)N)C(=O)Nc1ccc([N+](=O)[O-])cc1.Cl.Cl [2HCl.H-Val-Arg-pNA] (H-Val-Arg-pNA)
[S] 100 μM in plasma
  k1 : AT-III dependent decay of thrombin: 2.064 min⁻¹
  k2 : α2 M dependent decay of thrombin: 0.253 min⁻¹
  koverall: 2.317 min⁻¹
  t1/2: 17.95 s
[S] 200 μM in plasma
  (k1,corr) = k1,corr divided by μM AT-III: 21430 M⁻¹ s⁻¹
  k1,corr : k1 after correcting for k2,M and 0.170: 1.750 min⁻¹
  k1 : AT-III dependent decay of thrombin: 1.751 min⁻¹
  k2 : α2 M dependent decay of thrombin: 0.402 min⁻¹
  koverall: 2.154 min⁻¹
  t1/2: 19.31 s
[S] 500 μM in plasma
  (k1,corr) = k1,corr divided by μM AT-III: 18630 M⁻¹ s⁻¹
  k1,corr : k1 after correcting for k2,M and 0.170: 1.521 min⁻¹
  k1 : AT-III dependent decay of thrombin: 1.509 min⁻¹
  k2 : α2 M dependent decay of thrombin: 0.389 min⁻¹
  koverall: 1.898 min⁻¹
  t1/2: 21.91 s
[S] 1000 μM in plasma
  (k1,corr) = k1,corr divided by μM AT-III: 18500 M⁻¹ s⁻¹
  k1,corr : k1 after correcting for k2,M and 0.170: 1.510 min⁻¹
  k1 : AT-III dependent decay of thrombin: 1.676 min⁻¹
  k2 : α2 M dependent decay of thrombin: 0.204 min⁻¹
  koverall: 1.879 min⁻¹
  t1/2: 27.12 s
[S] 1500 μM in plasma
  k1 : AT-III dependent decay of thrombin: 1.087 min⁻¹
  k2 : α2 M dependent decay of thrombin: 0.130 min⁻¹
  koverall: 1.217 min⁻¹
  t1/2: 34.17 s
[S] 2000 μM in plasma
  k1 : AT-III dependent decay of thrombin: 0.877 min⁻¹
  k2 : α2 M dependent decay of thrombin: 0.128 min⁻¹
  koverall: 1.005 min⁻¹
  t1/2: 41.37 s
